# Values of other authors as cited in patent US20230372346A1, “TREATMENT REGIMENS FOR EXON-20 INSERTION MUTANT EGFR CANCERS” (CULLINAN PEARL CORP., priority 2020, published 2023).
# Conditions: human, in vivo; cited from earlier work
smiles,measurement,value
"C=CC(=O)Nc1cc(Nc2ncc(C(=O)OC(C)C)c(-c3cn(C)c4ccccc34)n2)c(OC)cc1N(C)CCN(C)C [TAK-788, mobocertinib]",toxicity in the lowest-dose cohort where stable diseases or partial responses were observed,presented both grade 3 or above TRAEs and dose-limiting toxicities
